Test results reported in patent publication US20210275522A1, “PHARMACEUTICAL COMPOSITIONS AND USE THEREOF” (priority 2018, published 2021).
Several values for one entry are separate records, joined by “and”; a condition that tells them apart may be missing. Identical values can stand only once.

Key:
Type in all cases: in vivo, SCID mice
[1] = test system: human SKM-1 MDS xenograft; experiment: Subcutaneous human SKM-1 MDS xenograft model (SZ-EF-59-2018); settings: Compound 1 50 mg/kg q.d×21 d p.o., alvocidib 2.5 mg/kg q.d×21 d i.p.; for RTV@ D21 / T/C(%)@D21: day 21
Method: (§1) SKM-1 human Myelodysplastic Syndromes (MDS) were maintained in vitro as suspension cultures in RPMI 1640 medium supplemented with 20% fetal bovine serum, 100 U/mL penicillin and 100 µg/mL streptomycin. Cells were maintained at 37° C. in an atmosphere of 5% CO2 in air and passaged twice weekly. Tumor cells growing in an exponential growth phase were harvested and counted for tumor inoculation. Each mouse was inoculated subcutaneously at the right flank region with OCI-AML-3 tumor cells (5×10^6) in 0.2 mL of PBS with 50% matrigel, SKM-1 tumor cells (3×10^7) in 0.2 mL of PBS with 50% matrigel, U2932 tumor cells (1×10^7) in 0.2 mL of PBS with 50% matrigel, for tumor development. After tumor cell inoculation, the animals were checked daily for morbidity and mortality. At the time of routine monitoring, the animals were checked for any effects of tumor growth and treatments on normal behavior such as mobility, visual estimation of food and water consumption, body weight gain/loss (body weights were measured twice weekly), eye/hair matting and any other abnormal effect. Death and observed clinical signs were recorded on the basis of the numbers of animals within each subset. The entire procedures of dosing as well as tumor and body weight measurement were conducted in a Laminar Flow Cabinet. Tumor volumes were measured twice weekly in two dimensions using a caliper, and the volume was expressed in mm^3 using the formula: Tumor Volume (mm^3)=0.5a×b^2 Relative tumor volume (RTV) was calculated using the following formula: RTV=Vt/V1 Synergy score was calculated using the following formula described in Clarke R. Issues in experimental design and endpoint analysis in the study of experimental cytotoxic agents in vivo in breast cancer and other models[J]. Breast Cancer Research & Treatment, 1997, 46(2-3):255-278, which is incorporated by reference in its entirety: Synergy score=(([…]); where A: response to treatment A; B: response to treatment B; C: response to vehicle control; AB: combination of treatment A and B. Synergy score>1, synergistic; score=1, additive; score<1, antagonistic. Standard NCI procedures were used to calculate tumor parameters. Percent tumor growth inhibition (% T/C) was calculated as the mean RTV of treated tumors (T) divided by the mean RTV of control tumors (C)×100%. […] In this study, efficacy of combination treatment with Compound 1 and alvocidib was evaluated in human SKM-1 MDS xenograft model (Study No. SZ-EF-59-2018). Dose treatments were started when the mean tumor volume reached 125 mm^3, the dose treatment start day was defined as day 1.

[2] = test system: human U2932 DLBCL xenograft; experiment: Subcutaneous human U2932 DLBCL xenograft model, combination with alvocidib (SZ-EF-62-2018); settings: for antitumor activity (in words) / RTV@ D19 / T/C(%)@D19: Compound 1 50 mg/kg q.d×19 d p.o., alvocidib 2.5 mg/kg q.d×7 d and q.w×2 w i.p.; for RTV@ D19 / T/C(%)@D19: day 19
Method: as §1, with “U2932 DLBCL” for “SKM-1 MDS”, “SZ-EF-62-2018).” for “SZ-EF-59-2018).”

[3] = test system: human OCI-AML-3 AML xenograft; experiment: Subcutaneous human OCI-AML-3 AML xenograft model (SZ-EF-42-2018); settings: Compound 1 50 mg/kg q.d×15 d p.o., alvocidib 2.5 mg/kg q.d×15 d i.p.; for RTV@ D15 / T/C(%)@ D15: day 15
Method: SKM-1 human Myelodysplastic Syndromes (MDS) were maintained in vitro as suspension cultures in RPMI 1640 medium supplemented with 20% fetal bovine serum, 100 U/mL penicillin and 100 µg/mL streptomycin. Cells were maintained at 37° C. in an atmosphere of 5% CO2 in air and passaged twice weekly. Tumor cells growing in an exponential growth phase were harvested and counted for tumor inoculation. Each mouse was inoculated subcutaneously at the right flank region with OCI-AML-3 tumor cells (5×10^6) in 0.2 mL of PBS with 50% matrigel, SKM-1 tumor cells (3×10^7) in 0.2 mL of PBS with 50% matrigel, U2932 tumor cells (1×10^7) in 0.2 mL of PBS with 50% matrigel, for tumor development. After tumor cell inoculation, the animals were checked daily for morbidity and mortality. At the time of routine monitoring, the animals were checked for any effects of tumor growth and treatments on normal behavior such as mobility, visual estimation of food and water consumption, body weight gain/loss (body weights were measured twice weekly), eye/hair matting and any other abnormal effect. Death and observed clinical signs were recorded on the basis of the numbers of animals within each subset. The entire procedures of dosing as well as tumor and body weight measurement were conducted in a Laminar Flow Cabinet. Tumor volumes were measured twice weekly in two dimensions using a caliper, and the volume was expressed in mm^3 using the formula: Tumor Volume (mm^3)=0.5a×b^2 Relative tumor volume (RTV) was calculated using the following formula: RTV=Vt/V1 Synergy score was calculated using the following formula described in Clarke R. Issues in experimental design and endpoint analysis in the study of experimental cytotoxic agents in vivo in breast cancer and other models[J]. Breast Cancer Research & Treatment, 1997, 46(2-3):255-278, which is incorporated by reference in its entirety: Synergy score=(([…]); where A: response to treatment A; B: response to treatment B; C: response to vehicle control; AB: combination of treatment A and B. Synergy score>1, synergistic; score=1, additive; score<1, antagonistic. Standard NCI procedures were used to calculate tumor parameters. Percent tumor growth inhibition (% T/C) was calculated as the mean RTV of treated tumors (T) divided by the mean RTV of control tumors (C)×100%. […] Alvocidib is a flavonoid alkaloid CDK9 kinase inhibitor, which is the first CDKi under clinical development for the treatment of acute myeloid leukemia. In this study, efficacy of combination treatment with Compound 1 and alvocidib was evaluated in human OCI-AML-3 AML xenograft model (Study No. SZ-EF-42-2018). Dose treatments were started when the mean tumor volume reached 95 mm^3, the dose treatment start day was defined as day 1.

[4] = test system: human U2932 DLBCL xenograft; experiment: Subcutaneous human U2932 DLBCL xenograft model, combination with dinaciclib (SZ-EF-37-2019); settings: for antitumor activity (in words) / RTV @ D21 (Mean + SEM) / T/C(%)@D21: Compound 1 30 mg/kg, dinaciclib 20 mg/kg; for mRECIST: SD (stable disease): animals with SD / animals in group; for RTV @ D21 (Mean + SEM) / T/C(%)@D21: day 21
Method: SKM-1 human Myelodysplastic Syndromes (MDS) were maintained in vitro as suspension cultures in RPMI 1640 medium supplemented with 20% fetal bovine serum, 100 U/mL penicillin and 100 µg/mL streptomycin. Cells were maintained at 37° C. in an atmosphere of 5% CO2 in air and passaged twice weekly. Tumor cells growing in an exponential growth phase were harvested and counted for tumor inoculation. Each mouse was inoculated subcutaneously at the right flank region with OCI-AML-3 tumor cells (5×10^6) in 0.2 mL of PBS with 50% matrigel, SKM-1 tumor cells (3×10^7) in 0.2 mL of PBS with 50% matrigel, U2932 tumor cells (1×10^7) in 0.2 mL of PBS with 50% matrigel, for tumor development. Tumor volumes were measured twice weekly in two dimensions using a caliper, and the volume was expressed in mm^3 using the formula: […] Relative tumor volume (RTV) was calculated using the following formula: […] Synergy score was calculated using the following formula described in Clarke R. Issues in experimental design and endpoint analysis in the study of experimental cytotoxic agents in vivo in breast cancer and other models[J]. Breast Cancer Research & Treatment, 1997, 46(2-3):255-278, which is incorporated by reference in its entirety: Synergy score=(([…]); where A: response to treatment A; B: response to treatment B; C: response to vehicle control; AB: combination of treatment A and B. […] Standard NCI procedures were used to calculate tumor parameters. Percent tumor growth inhibition (% T/C) was calculated as the mean RTV of treated tumors (T) divided by the mean RTV of control tumors (C)×100%. […] To confirm the synergistic antitumor effect between Compound 1 and CDK9 inhibitor in DLBCL, we applied combination therapy with Compound 1 plus CDK9 inhibitor dinaciclib in the same human U2932 DLBCL xenograft model, which was established according to embodiment 2.

Row | Compound | antitumor activity (in words) [1] | RTV@ D21 [1] | T/C(%)@D21 [1] | antitumor activity (in words) [2] | RTV@ D19 [2] | T/C(%)@D19 [2] | T/C(%)@D19 ([2]; listed as alvocidib) | occurrence of CR or PR ([2]; single arm) | antitumor activity (in words) [3] | RTV@ D15 [3] | T/C(%)@ D15 [3] | antitumor activity (in words) [4] | mRECIST: SD (stable disease) [4] | RTV @ D21 (Mean + SEM) [4] | T/C(%)@D21 [4] | mRECIST: PD (progressive disease) ([4]; animals with PD / animals in group)
1 | CN1CC[C@H](c2c(O)cc(O)c3c(=O)cc(-c4ccccc4Cl)oc23)[C@H](O)C1 [Alvocidib, alvocidib] | no antitumor activity | 17.2 ± 2.1 | 78.5% | antitumor activity | 1.19 ± 0.27 | 25.2% | 30.9% | no CR or PR | moderate antitumor activity | 14.0 ± 1.5 | 58.8% |  |  |  |  | 
2 | O=C(NS(=O)(=O)c1ccc(NC[C@H]2COCCO2)c([N+](=O)[O-])c1)c1ccc(N2CCN(CC3=C(c4ccc(Cl)cc4)CC4(CCC4)CC3)CC2)cc1Oc1cnc2[nH]ccc2c1 [Compound 1, (S)—N-((4-(((1,4-dioxan-2-yl)methyl)amino)-3-nitrophenyl)sulfonyl)-2-((1H-pyrrolo[2,3-b]pyridin-5-yl)oxy)-4-(4-((6-(4-chlorophenyl)spiro[3.5]non-6-en-7-yl)methyl)piperazin-1-yl)benzamide] | moderate antitumor activity | 14.7 ± 1.5 | 68.3% and 67.3% | antitumor activity | 1.46 ± 0.17 | 30.9% |  |  | no antitumor activity | 28.6 ± 2.3 | 120.2% | moderate antitumor activity | 5/5 SD | 2.79 ± 0.22 | 53.26% | 
3 | CCc1cnn2c(NCc3ccc[n+]([O-])c3)cc(N3CCCC[C@H]3CCO)nc12 [Dinaciclib, dinaciclib] |  |  |  |  |  |  |  |  |  |  |  | no antitumor activity | 3/5 | 3.74 ± 0.58 | 71.55% | 2/5
